# Measured values from the supplement of paper PMC10307832.
# Columns and labels:
# Experiment in all cases: relative viability (nuclei count vs DMSO), 5 days (fraction); higher = more cells survive
# [1] = compound: CN(C)CC1=CC(=CC=C1)N=C(C2=CC=CC=C2)C3=C(NC4=C3C=CC(=C4)C(=O)N(C)C)O + O=C(CCCCCCC(=O)Nc1ccccc1)NO [Vorinostat] (partner 1 µM)
# Outline: (§1)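 A single step with final 0.05% Triton X-100, 1% formaldehyde and 1 ug/ml Hoechst fixed the cells and stained nuclei 5 days after treatment. Lung cancer cell lines in 1536-well plates had been treated by pin tool the day after seeding with one drug alone or a fixed anchor-drug dose plus five library-drug doses (not always all listed) in √10 steps, and nuclei were counted on 4× images. Relative viability is the ratio of nuclei in treated wells to nuclei in vehicle wells, taken as the median of duplicate plates.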
# [2] = compound: CN(C)CC1=CC(=CC=C1)N=C(C2=CC=CC=C2)C3=C(NC4=C3C=CC(=C4)C(=O)N(C)C)O + Cc1nc(NC(=O)N2CCC[C@H]2C(N)=O)sc1-c1ccnc(C(C)(C)C(F)(F)F)c1 [Alpelisib] (partner 2 µM)
# Outline: as §1
# [3] = compound: CN(C)CC1=CC(=CC=C1)N=C(C2=CC=CC=C2)C3=C(NC4=C3C=CC(=C4)C(=O)N(C)C)O + CC1(C)CCC(c2ccc(Cl)cc2)=C(CN2CCN(c3ccc(C(=O)NS(=O)(=O)c4ccc(N[C@H](CCN5CCOCC5)CSc5ccccc5)c(S(=O)(=O)C(F)(F)F)c4)cc3)CC2)C1 [Navitoclax] (partner 0.5 µM)
# Outline: as §1
# [4] = compound: CN(C)CC1=CC(=CC=C1)N=C(C2=CC=CC=C2)C3=C(NC4=C3C=CC(=C4)C(=O)N(C)C)O + C[C@]1(O)C[C@@H](c2nc(-c3ccc4ccc(-c5ccccc5)nc4c3)c3c(N)nccn32)C1 [Linsitinib] (partner 1 µM)
# Outline: as §1
Cell Line,relative viability ([1]; first compound 0.08 µM),relative viability ([1]; first compound 0.253 µM),relative viability ([1]; first compound 0.8 µM),relative viability ([1]; first compound 2.53 µM),relative viability ([1]; first compound 8 µM),relative viability ([2]; first compound 0.08 µM),relative viability ([2]; first compound 0.253 µM),relative viability ([2]; first compound 0.8 µM),relative viability ([2]; first compound 2.53 µM),relative viability ([2]; first compound 8 µM),relative viability ([3]; first compound 0.08 µM),relative viability ([3]; first compound 0.253 µM),relative viability ([3]; first compound 0.8 µM),relative viability ([3]; first compound 2.53 µM),relative viability ([3]; first compound 8 µM),relative viability ([4]; first compound 0.08 µM),relative viability ([4]; first compound 0.253 µM),relative viability ([4]; first compound 0.8 µM),relative viability ([4]; first compound 2.53 µM),relative viability ([4]; first compound 8 µM)
NCI-H1651,0.558,0.547,0.573,0.599,0.593,1.05,0.985,1.03,0.807,0.826,1.11,1.11,1.13,1.11,0.934,0.88,1.2,0.923,0.789,0.801
NCI-H1395,0.705,0.845,0.886,0.589,0.701,1.04,0.948,1.1,0.87,0.964,1.23,1.13,1.22,0.965,1.12,1.08,0.838,1.08,0.788,0.995
NCI-H1437,0.918,0.886,0.975,0.943,1.1,1.01,0.996,0.951,0.906,0.971,1.2,1.08,1.09,1.06,1.12,0.948,1.07,1.05,1.01,1.03
HOP-62,0.624,0.659,0.643,0.7,0.46,0.995,1.13,0.93,1.03,0.973,1.05,0.94,1.03,1.04,0.977,1.11,1.08,0.99,1.1,1.16
NCI-H2347,0.604,0.736,0.617,0.539,0.565,1.02,0.983,1.07,1.08,1.04,0.898,0.878,0.67,0.775,0.871,1.04,0.995,0.994,1.03,1.05
EPLC-272H,0.426,0.519,0.402,0.49,0.315,0.935,0.872,0.825,1.06,0.856,1.35,1.08,0.913,1.14,1.11,1.21,1.11,0.937,1.15,0.934
NCI-H2405,1.1,1.01,1.06,0.987,1.01,0.87,0.713,0.889,0.721,0.654,1.17,0.759,1.1,0.786,0.742,1.01,0.845,1.03,0.867,0.76
SW 1573,0.616,1.08,0.958,0.744,0.55,0.787,0.711,0.651,0.802,0.642,1.01,0.822,0.844,0.906,1.01,0.735,0.829,0.731,0.73,0.731
